The values below come from patent US20220088225A1, “VIRAL TRANSDUCTION USING POLOXAMINES” (SIRION Biotech GmbH, priority 2018, published 2022).

In this experiment the test system is A2780 cells. The experiment is described as follows: Lentiviral transduction of adherent A2780 cells, Luciferase-expressing lentivirus, luminescence (RLU). The experiment is classed as cell-based, human. As to the method: Human ovarian carcinoma cells A2780 (Sigma Aldrich) and human lung adenocarcinoma cells NCl H1838 (ATTC) were grown in RPMI 1640 medium supplemented with 10% (vol/vol) fetal calf serum (FCS; Biochrom) and 2 mM L-glutamine (PAN Biotech).
The lentiviral transduction vectors p-Ubic-Luc2-IRES-Puro and p-CMV-copGFP-IRES-Puro allow expression of Luciferase driven by Ubic promoter or copGFP by CMV promoter, respectively. Replication-defective lentiviral particles were produced by transient co-transduction of HEK293-TN cells in a T75 flask with 10 μg of packaging plasmids pMDL, pVSV-G, pRev (Roche) and 2 μg of transduction vector using Lipofectamine 2000 (Life Technologies) as transduction reagent according to the manufacturer's instructions. […]
To quantify total viral transgene expression by Luciferase, 100 μl Steady-Glo reagent (Promega) was added to the cells 3 days after viral transduction. The plate with the cells was put into a Tecan Infinite M200 plate reader and shaken for 30 seconds. After incubation for 10 minutes at room temperature, luminescence signal was measured by the plate reader. […]
As controls virus only (with H2O instead of adjuvant), or […] Polybrene was added to the wells before transduction. […] Three days post transduction the efficiency of transduction was assessed by measuring luciferase activity on a plate reader. Results are presented in relative luminescence units (RLU). […]

For the substance Protamine sulfate, the “increase of total transgene expression compared to virus only” value by setting is: (5 μg/ml Protamine sulfate alone) 1.14 fold; (40 μg/ml Protamine sulfate alone) 2.08 fold.
